Measurements: patent US20200338042A1, “USE OF DAPHNETIN IN TREATMENT OF AGE-RELATED COGNITIVE DECLINE” (XI'AN JIAOTONG UNIVERSITY, priority 2019, published 2020)

Experiments:
Assay type in all cases: in vivo
[1] = system: APP/PS1 transgenic mice; test: Morris water maze experiment in APP/PS1 transgenic mice; details: for path length for finding the platform in water maze: FIG. 1B
Description: (§1) APP/PS1 transgenic mouse model as the Alzheimer's disease transgenic mouse model was used in the experiments. The APP/PS1 double-transgenic mice overexpressing human Aβ precursor protein (APP) and presenilin 1 (PS1) in the brains can simulate typical pathological and neurological symptoms, such as Aβ deposition and cognitive function degeneration, of human AD.
A water maze experiment was used to observe the effect of daphnetin for improving the cognitive function of the mice.
The 3-month-old APP/PS1 transgenic mice and control mice were purchased from the Model Animal Center of Nanjing University. All mice were fed in an environment with a temperature from 23° C. to 25° C., a humidity of 60%, and a 12 h/12 h day/night light cycles. Mice had free access to food and water during the experiment.
After adapting to the feeding environment, the experimental mice were divided into four groups: 1) a group of wild type (WT) mice to which double-distilled water (ddH2O) was daily administered intragastrically (Group WT+ddH2O), the number (n) of the mice is 11 (n=11); 2) a group of wild type mice to which daphnetin was daily administered intragastrically at 100 mg/kg/day (Group WT+Daphnetin), n=12; 3) a group of APP/PS1 mice to which ddH2O was daily administered intragastrically (Group AD+ddH2O), n=15; 4) a group of APP/PS1 mice to which daphnetin was daily administered intragastrically at 100 mg/kg/day (Group AD+Daphnetin), n=14. The entire experiment was lasted for 12 months.
The daily intragastric administrations of daphnetin or ddH2O were lasting for 9 months to corresponding groups of mice before the water maze experiment.
Morris water maze experiment is a classic way to test spatial learning and memory abilities in mice. The experiment was conducted in a round swimming pool with a diameter of 120 cm, divided into four quadrants I, II, III, and IV. A small round platform with a diameter of 7.5 cm was placed in the center the quadrant IV, and submerged 1 cm below the water surface. Four different-shaped markers as visual cues were placed corresponding to the four quadrants on the curtain support around the swimming pool. During the experiment, the water temperature was kept at 25° C., the surroundings were kept quiet, and the swimming pool was isolated from the external environment by the curtain. Each mouse was allowed to swim freely in the swimming pool for 60 seconds (s) on the day before the formal experiment to adapt to the swimming environment. […] The camera placed on the top of the pool recorded the paths of the mice finding the hidden platform in the swimming pool. […] The times and distances that the mice travels to the platform recorded by the camera video tracking system were used to analyze the learning and memory of the mice. […]

[2] = system: Aβ40; test: ELISA detection of soluble Aβ40 in cerebral cortex tissues of APP/PS1 mice; details: Group AD+Daphnetin (APP/PS1 mice, 100 mg/kg/day intragastrically) compared to Group AD+ddH2O; one week after water maze; FIG. 2A
Description: as §1
(§2) The contents of Aβ40 and Aβ42 in the brain were detected by the enzyme-linked immunosorbent assay (ELISA) method to observe the effect of daphnetin for ameliorating abnormal protein deposition of the mice.
(§3) Daphnetin was purchased from Nanjing Puyi Biotechnology Co., Ltd.; Aβ40 and […] ELISA detection kits were purchased from Invitrogen Corporation. […]
(§4) Aβ plaque is a significant pathological feature of Alzheimer's disease. As Aβ40 and Aβ42 are most common in the process of producing Aβ, the contents of soluble Aβ40 and Aβ42 in the cerebral cortex tissues were detected by the ELISA method.
(§5) First, the cortex tissue was homogenized using a guanidine salt buffer (5 mol/L guanidine hydrochloride/50 mmol Tris HCl), and the tissue homogenate was centrifuged at 4° C. for 10 minutes at 10,000 g. […] The absorbance (OD450) at a wavelength of 450 nm was measured by a FlexStage3 microplate reader. Protein quantification was performed by using BCA method for ELISA protein calibration. […]

[3] = system: Aβ42; test: ELISA detection of soluble Aβ42 in cerebral cortex tissues of APP/PS1 mice; details: Group AD+Daphnetin (APP/PS1 mice, 100 mg/kg/day intragastrically) compared to Group AD+ddH2O; one week after water maze; FIG. 2B
Description: as §1, §2, §3, §4, §5

Q: `O=c1ccc2ccc(O)c(O)c2o1` [Daphnetin, 7,8-dihydroxycoumarin] was tested. Which “AUC of swimming time (escape latency) in water maze, Group AD+ddH2O compared to Group AD+Daphnetin” value ([1]; 5-day training, worded as AD+ddH2O relative to AD+Daphnetin (100 mg/kg/day intragastrically, 9 months), i.e. lower AUC with daphnetin, FIG. 1C) did it give?
A: The value was “increased significantly”.

Q: And the “path length for finding the platform in water maze” value ([1]; day 4 of training, Group AD+Daphnetin (APP/PS1 mice, 100 mg/kg/day intragastrically, 9 months) compared to Group AD+ddH2O)?
A: The value was “significant shortened”.

Q: What about the “escape latency in water maze (time to find the escape platform)” value ([1]; day 5 of training, Group AD+Daphnetin (APP/PS1 mice, 100 mg/kg/day intragastrically, 9 months) compared to Group AD+ddH2O, FIG. 1A) of the same molecule?
A: Its value is “significantly shortened”.

Q: And the “path length for finding the platform in water maze” value ([1]; day 5 of training, Group AD+Daphnetin (APP/PS1 mice, 100 mg/kg/day intragastrically, 9 months) compared to Group AD+ddH2O)?
A: Its value is “significant shortened”.

Q: And the “level of Aβ40 in the cerebral cortex tissues” value [2]?
A: The value was “significantly reduced”.

Q: And the “level of Aβ42 in the cerebral cortex tissues” value [3]?
A: The value was “significantly reduced”.
